Assay results reported in patent publication US20120021468A1, “PRODUCTION OF L-RIBOSE AND OTHER RARE SUGARS” (ZUCHEM, INC., priority 2008, published 2012).

How the values were obtained:
[1] = tested on: HIV; details: cited from earlier work
[2] = target: T1, Recombinant MDH (Apium graveolens, UniProt Q38707); assay: Relative reaction rates of substrates with recombinantly expressed MDH (NADH measured spectrophotometrically); format: biochemical; details: MDH expressed recombinantly; D-mannitol = 100%
T1 construct: An MDH gene was synthetically constructed for expression E. coli; made in house; host or cells: E. coli BL21, pTTQ18 plasmid
Description: (§1) Many different variables were studied to maximize the expression and activity of MDH. MDH activity was monitored with the conversion of D-mannitol to D-mannose in the presence of NAD. The conversion was monitored spectrophotometrically by measuring the increasing concentration of NADH, the cofactor product of the oxidation of mannitol to mannose. For a given experiment, lysate protein concentrations were normalized.
(§2) Substrate specificity of the recombinant MDH was also tested and compared with the published data on the natively expressed MDH. Recombinant expression of MDH in E. coli could cause subtle modifications to the tertiary structure of MDH and modify the substrate specificity. Several known substrates of the MDH were tested.[16]

[3] = target: T2, Native MDH (Apium graveolens, UniProt Q38707); details: MDH expressed natively; D-mannitol = 100%; published data; cited from earlier work
T2 construct: compared with the published data on the natively expressed MDH; host or cells: celery (Apium graveolens), native expression

[4] = tested on: E. coli production strain with inactive PEP-dependent phosphotransferase system; assay: Polyol conversion in shake flasks by mutagenized PTS-inactive E. coli MDH strain, HPLC; format: cell-based
From the text: This can be accomplished by PCR-based genetic deletion of phosphocarrier protein ptsH, phosphotransferase system enzyme I ptsI, and the glucose specific enzyme IIA PTS component crr, but could be accomplished by other genetic manipulation including deletion of the polyol specific PTS type II genes or other genetic or biochemical manipulation known to those skilled in the art. These mutations render the production strain unable to metabolize or phosphorylatively uptake D-mannitol, galactitol, or D-sorbitol.
Flasks contained LB, ampicillin, 250 μM ZnCl2, and 40 g/L galactitol, D-mannitol, or D-sorbitol. Cells were induced with 0.5 mM IPTG after 4 hrs growth at 37° C. and the temperature was reduced to 25° C. After 6 days of incubation, D-mannose had been created from D-mannitol with 12% conversion. D-sorbitol conversion to L-gulose ceased after 7 days with a final conversion of 12%. Following 14 days of reaction, L-galactose had been produced from galactitol with 40% conversion. The final products were characterized by non-chiral HPLC in comparison to their D-counterparts. Optical rotation was obtained by polarimetry and used to verify stereochemistry. This resulting strain is further capable of converting D-arabitol to D-lyxose at 24% conversion.

[5] = tested on: recombinant E. coli MDH strain; assay: Polyol bioconversion by the recombinant E. coli MDH strain, HPLC; format: cell-based; details: strain with active phosphotransferase uptake system
From the text: It was hypothesized that the lack of conversion was due to the phosphotransferase uptake system for D-mannitol, galactitol, and D-sorbitol, which phosphorylates these polyols upon uptake.

[6] = target: T3, Apium gravelons mannitol-1-dehydrogenase (MDH) (Apium graveolens, UniProt Q38707, C47S/T120I); assay: MDH activity in lysate with added divalent metal salts; format: biochemical
T3 construct: An MDH gene was synthetically constructed for expression E. coli; made in house; host or cells: E. coli BL21, pTTQ18 plasmid
Description: While not explicitly described in the literature, Apium gravelons mannitol-1-dehydrogenase (MDH) requires divalent metal ions, particularly Zn^2+ ions, for activity. The presence of ZnSO4 increases MDH activity. Cells expressing MDH were grown in rich media were harvested and lysed with BUGBUSTER® protein extraction reagent, Novagen, Madison, Wis. MDH activity was then tested with increasing concentrations of ZnSO4 in the presence of D-mannitol and NAD cofactor at pH 9.0. See, FIG. 11.

[7] = target: T4, Recombinant MDH (Apium graveolens, UniProt Q38707, C47S/T120I); assay: Relative reaction rates of substrates with recombinantly expressed MDH (NADH measured spectrophotometrically); format: biochemical; details: recombinant MDH
T4 construct: An MDH gene was synthetically constructed for expression E. coli; made in house; host or cells: E. coli BL21, pTTQ18 plasmid
Description: as §1, §2

[8] = tested on: recombinant E. coli expressing MDH; assay: Effect of Zn2+ on L-ribose production from ribitol; format: cell-based; details: LB, 100 g/L ribitol, 0.5% glycerol
Description: The cultures are analyzed for production of L-ribose vs. time. The optimum production of L-ribose occurs between 0.15 and 1.5 mM Zn^2+ with the best conversion at 0.5 mM ZnCl2 (FIG. 14).

[9] = pH profile of MDH oxidation activity; format: biochemical; details: relative to maximum at pH 9.0
Description: as §1
The pH profile for MDH for the oxidation reactions was also tested. […] This range could be beneficial for in vitro bioconversions with enzymatic NAD cofactor recycling methods. Increasing the activity of MDH at neutral pH could improve in vivo fermentation activity as the interior of the E. coli cell has a pH lower than 9.0.[21]

[10] = MDH thermal stability: incubation at 43° C. followed by kinetic assay; format: physicochemical; details: relative to WT
[11] = Thermostability of recombinant MDH in lysates; format: physicochemical; details: after four hours of incubation at various temperatures, except at 25° C.
Description: The thermostability of recombinant MDH was also tested. Lysates containing MDH were incubated at various temperatures. Aliquots of MDH were removed at various times to measure MDH activity using the assay described above. See, FIG. 13.

[12] = Fermentation of ribitol to L-ribose with wild-type MDH in E. coli; format: cell-based
Description: Because of the successes with the expression of MDH in E. coli, additional experiments were performed to determine the feasibility of the MDH system to produce L-ribose with MDH enzyme. Initial fermentation experiments were performed in shake-flasks using rich media and varying concentrations of ribitol. With 2% ribitol (w/v), the MDH-expressing strain converted approximately 25% of the ribitol to L-ribose with 48 hrs. The goal for this strain would be to have >90% conversion within 24-48 hrs.
One goal for the fermentation would be the synthesis of 100-150 g·L^−1 of L-ribose in 24-48 hrs with >90% conversion efficiency from ribitol. Initial fermentation results with the wild-type MDH show a productivity of approximately 35 g·L^−1 in 48 hrs with 30% ribitol converted.

Nc1ccn([C@@H]2CS[C@H](CO)O2)c(=O)n1 [Strain L-3TC]
potency compared with the D-form of BCH-189 [1]: more potent

OC[C@@H](O)[C@H](O)[C@@H](O)CO [Xylitol]
Relative reaction rates, Recombinant MDH [2]: 1% | Relative reaction rates, Native MDH [3]: 0%

OC[C@@H](O)[C@@H](O)[C@H](O)[C@@H](O)CO [D-Sorbitol]
Relative reaction rates, Recombinant MDH [2]: 5% | final conversion of D-sorbitol to L-gulose ([4]; 40 g/L polyol, 25° C., ceased after 7 days): 12% | Relative reaction rates, Native MDH [3]: 22% | conversion of polyol to sugar detected by HPLC [5]: none was detected

Nc1ccn(C2CSC(CO)O2)c(=O)n1 (racemic) [BCH-189, (±)-2,3-dideoxy-3′-thiacytidine]
anti-HIV activity [1]: anti-HIV activity

OC[C@@H](O)[C@@H](O)CO [Erythritol]
Relative reaction rates, Recombinant MDH [2]: 4% | Relative reaction rates, Native MDH [3]: 16%

O=S(=O)([O-])[O-].[Zn+2] [Zn^2+]
concentrations showing inhibition of MDH activity ([6]; D-mannitol, NAD, pH 9.0): above 1 μM | increase of MDH activity compared to no added zinc ([6]; addition of 1 μM Zn2+, D-mannitol, NAD, pH 9.0): 50%

OC[C@@H](O)[C@H](O)[C@H](O)[C@@H](O)CO [galactitol]
conversion of galactitol to L-galactose ([4]; 40 g/L polyol, 25° C., 14 days): 40% | conversion of polyol to sugar detected by HPLC [5]: none was detected

O=S(=O)([O-])[O-].[Ni+2] [NiSO4]
inhibition of MDH activity compared to MDH without NiSO4 ([6]; 0.1 mM NiSO4): approximately 50%

C[C@H](O)[C@@H](O)[C@@H](O)[C@H](O)CO [L-fucitol]
relative reaction rate, % the rate of D-mannitol [7]: 10.5%

OC[C@@H](O)[C@@H](O)[C@H](O)[C@H](O)CO [D-Mannitol]
Relative reaction rates, Recombinant MDH [2]: 100% | conversion of D-mannitol to D-mannose ([4]; 40 g/L polyol, 25° C., after 6 days): 12% | Relative reaction rates, Native MDH [3]: 100% | conversion of polyol to sugar detected by HPLC [5]: none was detected

[Cl-].[Cl-].[Zn+2] [ZnCl2]
ZnCl2 concentration of best conversion [8]: 0.5 mM

OC[C@@H](O)C(O)[C@H](O)CO [D-Arabitol]
Relative reaction rates, Recombinant MDH [2]: 33% | conversion of D-arabitol to D-lyxose [4]: 24% | Relative reaction rates, Native MDH [3]: 37%

OC[C@@H](O)[C@@H](O)[C@@H](O)CO [Ribitol]
Relative reaction rates, Recombinant MDH [2]: 50% | Relative reaction rates, Native MDH [3]: 36%

B1: MDH: NAD-dependent mannitol-1-dehydrogenase from Apium graveolens, SEQ ID NO:2, wild type, expressed in E. coli (protein)
chain: MAKSSEIEHPVKAFGWAARDTTGLLSPFKFSRRATGEKDVRLKVLFSGVCHSDHHMIHNNWGFTTYPIVPGHEIVGVVTEVGSKVEKVKVGDNVGIGCLVGSCRSCESCCDNRESHCENIIDTYGSIYFDGTMTHGGYSDTMVADEHFILRWPKNLPLDSGAPLLCAGITTYSPLKYYGLDKPGTKIGVVGLGGLGHVAVKMAKAFGAQVTVIDISESKRKEALEKLGADSFLLNSDQEQMKGARSSLDGIIDTVPVNHPLAPLFDLLKPNGKLVMVGAPEKPFELPVFSLLKGRKLLGGTINGGIKETQEMLDFAAKHNITADVEVIPMDYVNTAMERLVKSDVRYRFVIDIANTMRTEESLGA
residual activity at pH 7.0 [9]: 10% | Ratio T1/2 [10]: 1.0 | loss of MDH activity on incubation of lysates [11]: Most MDH activity was lost | ribitol converted to L-ribose ([12]; 2% ribitol (w/v), shake-flask, 48 hrs): approximately 25% | ribitol converted ([12]; 48 hrs): 30% | productivity of L-ribose ([12]; in 48 hrs, unoptimized E. coli strain): approximately 35 g·L^−1
